Data on 9 compounds can be found in patent US5432172A, “Biological applications of alkaloids derived from the tunicate Eudistoma sp” (The Research Foundation of State University of New York, priority 1993, dated 1995).

For data set [1], the system named is neuroblastoma N1E-115 cells. The experiment in a line: Growth and morphological differentiation of mouse neuroblastoma N1E-115 cells. To be noted: for range of effective concentrations that inhibited cell proliferation and induced morphological differentiation / effects on cell appearance: N1E-115 cells; for range of effective concentrations that inhibited cell proliferation and induced morphological differentiation: below range no noticeable effect, above range cytotoxic; for effects on cell appearance: morphology; for most effective concentration for the cells tested: summary, cells tested in the present invention; for effects on cell growth and differentiation / effect on cell division and morphological differentiation / long-term effect on cell division: single application; for effect on cell division and morphological differentiation: 3 days; for long-term effect on cell division: 6 days. As to the method:
A,B: Untreated cells, 3 (A) and 8 (B) days after subculture. C,D: Cells grown for 3 (C) and 8 (D) days with 12.8 μM Debromoshermilamine. E,F: Cells grown for 7 days with Isosegoline A (39 μM) and Norsegoline (16.3 μM), respectively.
A,B: Untreated cells 3 (A) and 6 (B) days after subculture. C,D: Cells grown for 3 (C) and 6 (D) days with 50 μM forskolin. E,F: Cells grown for 3 (E) and 6 (F) days with 39 μM Segoline A. G,H: Cells grown for 3 (G) and 6 (H) days with 0.14 μM Eilatin.
Cells were grown for six days in the absence of drugs (A), or in the presence of: 10 μM 4-methylpyrido[2,3,4-kl]acridine (B), 4 μM pyrido[2,3,4-kl]acridine (C), 0.08 μM Eilatin (D), 75 μM forskolin (E).
The inventors chose the neuroblastoma N1E-115 cells because these tumor-derived cells can be induced to express characteristic neuronal properties by a variety of procedures see Spector, "Electrophysiology of clonal nerve cell lines. In: Excitable Cells in Tissue Culture", Nelson et al. eds., Plenum, New York 247-277 (1981) and can serve as a useful experimental system in which to explore the effects of the Eudistoma alkaloids on the biological properties of both cancer cells and neuronal cells.
The N1E-115 cells were exposed to various concentrations of the six (6) natural products shown in FIG. 1, and of the two synthetic pyridoacridines shown in Scheme III of FIG. 2. […] A,B: Untreated cells, 3 (A) and 8 (B) days after subculture. C,D: Cells grown for 3 (C) and (8) days with 12.8 μM Debromoshermilamine. E,F: Cells grown for 7 days with Isosegoline A (39 μM) and Norsegoline (16.3 μM), respectively. FIG. 5 illustrates the appearance of N1E-115 cells 6 days after replating in the absence (A) and in the presence of 10 μM 4-methylpyrido[2,3,4-kl]acridine (B), or 4 μM pyrido[2,3,4-kl]acridine.

Data set [2] concerns normal hamster fibroblast NIL8 cell line. The experiment in a line: Growth and morphology of normal NIL8 fibroblast cells. The class given is cell-based. To be noted: single application.
The test system of data set [3] is type II cAMP-dependent protein kinase. The settings on record: literature; cited from earlier work.
A further data set concerns pyruvate kinase. The experiment in a line: Pyruvate kinase activity in cultured rat hepatoma FAO cells. The class given is cell-based. The settings on record: for Km: control 0.14, read-out: Km for the substrate phosphoenolpyruvate (PEP). How it is done: FIG. 11 is a graph showing the effects of the Eudistoma alkaloids on pyruvate kinase activity in cultured rat hepatoma FAO cells. Enzyme activity v/Vmax was assayed as described in Example IV in partially purified extracts from cells incubated for 1 h in the absence ( ) or presence of 100 μM CPT-cAMP (.cndot.) and 26 μM segoline A ( ) as a function of substrate concentrations (phosphoenolpyruvate, PEP).
1. Activity of pyruvate kinase--a key glycolytic enzyme whose activity is inhibited by cAMP-dependent phosphorylation.
FIG. 11 is a graph showing the effects of the Eudistoma alkaloids on pyruvate kinase activity in cultured rat hepatoma FAO cells. Enzyme activity v/Vmax was assayed in partially purified extracts from cells incubated for 1 h in the absence (squares) or presence of 100 μM 8-(4-chlorophenylthio) cyclic AMP (CPT-cAMP)-CPT-cAMP (circles) and 26 μM Segoline A (triangles) as a function of substrate concentrations (phosphoenolpyruvate, PEP).

Data set [4] concerns normal hamster fibroblast NIL8 cell line. As to the kind of experiment: Growth and morphology of normal NIL8 fibroblast cells. Format: cell-based. As to the method: Cells were grown for 5 days in the absence of drugs (A), and in the presence of 25 μM forskolin (B), 1.4 μM Eilatin (C), or 12.8 μM Debromoshermilamine (D). […]
As illustrated, a single application of 1.4 μM Eilatin or 12.8 μM Debromoshermilamine to NIL8 cells produced effects which are strikingly similar to those obtained by chronically treating time cells with agents that elevate or mimic cAMP. […] This predilection towards cancer cells is a very desirable property in developing potential drugs for the treatment of cancer.

In another data set the test system is NIL8-HSV cells. How it is done: A-D Cells grown for 6 days in the absence of drugs (A), or in the presence of 75 μM forskolin (B), 13 μM Segoline B (C) or 0.21 μM Eilatin (D). E and F show the appearance of the Segoline B- and Eilatin-treated cells, 7 days after removal of the toxins.
A: F-actin staining in control cells. B: F-actin staining in a cell treated for 4 days with 13 μM Segoline B.
Cells were grown for 6 days in the absence of drugs (A), or in the presence of 10 μM 4-methylpyrido[2,3,4-kl]acridine (B), 4 μM pyrido[2,3,4-kl]acridine (C), 0.08 μM eilatin (D), or 75 μM forskolin (E).
As reviewed by Willingham, Int. Rev. […] Transformed fibroblasts which display altered growth patterns and aberrant morphologies respond to cAMP elevation by restoration of many normal aspects of growth and morphology, a phenomenon known as "cAMP-mediated reverse transformation" as described by Lockwood et al., J. Cell. Biochem., 33, 237-255 (1987).
A-D show cells grown for 6 days in the absence of drugs (A), or in the presence of 75 μM forskolin (B), 13 μM Segoline B (C) or 0.21 μM Eilatin (D). E and F show the appearance of the Segoline B- and Eilatin-treated cells, 7 days after removal of the toxins.
A: F-actin staining in control cells.

[5] abbreviates: 1.4 μM Eilatin, 5 days, single application.

Each structure is given as a SMILES string. “Also recorded” adds a separate entry of the source. Where two headings read alike, the source gives them in different places.

As to `COc1cc2c3c4c(ccnc14)-c1ccccc1N3C(C)C1(C)C(=O)NC(=O)C21` (single isomer, unassigned) [Isosegoline A], in data set [1], the “range of effective concentrations that inhibited cell proliferation and induced morphological differentiation” value was 12-52 μM; the “effects on cell appearance” value is recorded as “flattened cell bodies as well as numerous long neurites”; the “most effective concentration for the cells tested” value (from here on “most effective concentration”) was in the range of 12 to 52 µM.

Turning to `Cc1ccc2c3c(ccnc13)-c1ccccc1N2` [4-methylpyrido[2,3,4-kl]acridine], in data set [1], the “range of effective concentrations that inhibited cell proliferation and induced morphological differentiation” value was 7.5-12.5 μM; the “effects on cell appearance” value is given as “most neurites were short”; the “most effective concentration” value fell in the range of 7.5 to 12.5 µM. For the same compound, in data set [2] (10 μM 4-methylpyrido[2,3,4-kl]acridine, 6 days), the “effect on NIL8 cells” value is reported as “effects which were similar to those produced by the natural alkaloids”.

Consider `Nc1ncnc2c1nc(Cl)n2[C@@H]1O[C@@H]2COP(=O)(O)O[C@H]2[C@H]1O` [8-chloro-cAMP, reference compound], for which the “effects on cell growth and differentiation” value in data set [1] (8-chloro cAMP 250 μM) was “transient effects”. Also, in data set [3], the “preferential binding to type II cAMP-dependent protein kinase” value was “bind preferentially to type II cAMP-dependent protein kinase”.

As for `Nc1ncnc2c1nc(Sc1ccc(Cl)cc1)n2[C@@H]1O[C@@H]2COP(=O)(O)O[C@H]2[C@H]1O` [CPT-cAMP, 8-(4-chlorophenylthio) cyclic AMP, reference compound], the “effects on cell growth and differentiation” value in data set [1] (CPT-cAMP 250-500 μM) is “transient effects”. In addition, in the data set on pyruvate kinase (100 μM CPT-cAMP, 1 h), the Km (usually the substrate concentration at which the rate is half of its maximum) came out at 520 µM. The “preferential binding to type II cAMP-dependent protein kinase” value in data set [3] was “bind preferentially to type II cAMP-dependent protein kinase”.

On to `c1ccc2c(c1)nc1c3nc4ccccc4c4ccnc(c5nccc2c51)c43` [Eilatin], for which the “differentiation in N1E-115 cells” value in data set [1] (0.08 μM Eilatin) was “produced differentiation in N1E-115 cells”. Moreover, in data set [1] (0.14 μM Eilatin), the “effect on cell division and morphological differentiation” value is “inhibited cell division and induced morphological differentiation”; the “long-term effect on cell division” value is “cell division is completely blocked”. Moreover, the “toxicity to transformed cells” value in data set [1] (1.4 μM Eilatin, N1E-115 ("both the transformed cell lines")) is reported as “toxic to both the transformed cell lines”. Besides, in data set [1], the “range of effective concentrations that inhibited cell proliferation and induced morphological differentiation” value is reported as 0.05-0.5 μM; the “effects on cell appearance” value is given as “flattened cell bodies as well as numerous long neurites”; the “most effective concentration” value lay within 0.05 to 0.5 µM. Also, in data set [1] (actions at the cellular level), the “potency relative to the other five naturally occurring compounds and the synthetic pyridoacridines” value is reported as 100 times. Also, in data set [4] (setting [5]), the “effect on cell shape of NIL8 cells” value is on record as “more elongated” and the “effect on growth of NIL8 cells” value was “growth was inhibited”. Further, the “effect on normal cells” value in data set [4] (at concentrations that induce differentiation and reverse transformation of transformed cells) is reported as “no effect on normal cells”. Besides, in the data set on NIL8-HSV cells, the “cytotoxicity to transformed cells versus normal cells” value is on record as “more cytotoxic to transformed cells than to normal cells”. Moreover, the “reverse transformation in NIL8-HSV cells” value in the data set with NIL8-HSV cells (0.08 μM Eilatin) was “reverse transformation in NIL8-HSV cells”. The “reversal of the effects of transformation” value (shortened to “reversal”) with NIL8-HSV cells (0.21 μM Eilatin, one application) is recorded as “permanently reverse the effects of transformation”. Moreover, the “effects on cell shape and actin organization” value with NIL8-HSV cells (0.21 μM Eilatin, FIG. 8D) is “became large and flat and showed the typical network of stress fibers”. For the same compound, the “growth and morphology after drug removal” value in the data set with NIL8-HSV cells (7 days after removal of 0.21 μM Eilatin) was “maintained their reduced growth and flattened morphology”. In data set [2] (0.08 μM Eilatin), the “effect on NIL8 cells” value is “no effects on NIL8 cells; also recorded: did not exert any effect on the normal NIL8 cells”.

As to `COC(=O)c1cc(OC)c2nccc3c2c1Nc1ccccc1-3` [Norsegoline], in data set [1], the “range of effective concentrations that inhibited cell proliferation and induced morphological differentiation” value is recorded as 8-40 μM; the “effects on cell appearance” value is “relatively small cell bodies and numerous long neurites”; the “most effective concentration” value lay within 8 to 40 µM. Moreover, the Km with pyruvate kinase (concentration of alkaloid not given) amounted to 400 µM. Besides, the “inhibition of pyruvate kinase activity” value in the data set with pyruvate kinase (submaximal substrate concentrations) is “inhibit pyruvate kinase activity”. In addition, the “rise in the Km for substrate (phosphoenolpyruvate)” value in the data set on pyruvate kinase (versus control) was “ca. 3 fold”.

`COc1cc2c3c4c(ccnc14)-c1ccccc1N3C1(C)C(=O)NC(=O)C2C1C` (centres unmarked) [Segoline B]: the “reversal” value in the data set on NIL8-HSV cells (13 μM Segoline B, one application) was “permanently reverse the effects of transformation”. In addition, the “effects on cell shape and actin organization” value in the data set on NIL8-HSV cells (13 μM Segoline B, FIGS. 8C, 9B) was “became large and flat and showed the typical network of stress fibers”. Further, in the data set with NIL8-HSV cells (7 days after removal of 13 μM Segoline B), the “growth and morphology after drug removal” value is “maintained their reduced growth and flattened morphology”.

For the compound `C=C[C@@]1(C)CC(=O)[C@]2(O)[C@@]3(C)[C@@H](O)CCC(C)(C)[C@@H]3[C@H](O)[C@H](OC(C)=O)[C@@]2(C)O1` [forskolin, reference compound], in data set [1] (50 μM forskolin), the “effect on cell division and morphological differentiation” value was “inhibited cell division and induced morphological differentiation”; the “long-term effect on cell division” value is “became confluent like the control cells”. The “effect on NIL8 cells” value in data set [4] (25 μM forskolin, 5 days, single application) was “the cells reached the high saturation densities typical of untreated cultures”. Also, the “long-term effect on transformed phenotype” value with NIL8-HSV cells (75 μM forskolin, 6 days (FIG. 8B)) is recorded as “reverted to the transformed phenotype”. Moreover, the “reversal” value in the data set on NIL8-HSV cells (forskolin 50-100 μM, single application, data not shown) is given as “transiently reverse the effects of transformation”.

In the case of `c1ccc2c(c1)Nc1cccc3nccc-2c13` [pyrido[2,3,4-kl]acridine], in data set [1], the “range of effective concentrations that inhibited cell proliferation and induced morphological differentiation” value was 2-5 μM; the “effects on cell appearance” value is “flattened cell bodies as well as numerous long neurites”; the “most effective concentration” value is 2 to 5 µM. In data set [2] (4 μM pyrido[2,3,4-kl]acridine, 6 days), the “effect on NIL8 cells” value was “effects which were similar to those produced by the natural alkaloids”.
